In patent US8450318B2 (priority 2007, dated 2013):
In brackets after ≈: the same amount, converted by molar mass. Where two headings read alike, the source gives them in different places.

Tests used:
Feline Corona virus = test: Activity on feline corona virus in CRFK cells; format: cell-based
[1] = test system: human corona (SARS) virus; test: microbe, parasite or virus in culture; format: cell-based; settings: human corona (SARS) virus
CRFK cells [2] = settings: cytotoxicity, feline corona virus test
CRFK cells [3] = settings: cytotoxicity, human corona virus test
Influenza A H1N1 subtype = test: Anti-influenza activity in MDCK cells, Influenza A H1N1; format: cell-based; settings: for EC50 Influenza A H1N1 subtype MTS: cell viability, formazan-based MTS assay; for EC50 Influenza A H1N1 subtype visual CPE score: visual scoring of the CPE; for EC50: reference compounds
Description: (§1) MDCK cells (Madin Darby canine kidney cells) have been used for the experiments shown in table 5 using standard procedures known in the art.

Influenza A H3N2 subtype = test: Anti-influenza activity in MDCK cells, Influenza A H3N2; format: cell-based; settings: for EC50 Influenza A H3N2 subtype MTS: cell viability, formazan-based MTS assay; for EC50 Influenza A H3N2 subtype visual CPE score: visual scoring of the CPE; for EC50: reference compounds
Description: as §1

Influenza B = test: Anti-influenza activity in MDCK cells, Influenza B; format: cell-based; settings: for EC50 Influenza B MTS: cell viability, formazan-based MTS assay; for EC50 Influenza B visual CPE score: visual scoring of the CPE; for EC50: reference compounds
HIV-1 = settings: Table 1; CEM cells, prevention of syncytium formation by 50%, 4 to 5 days
HIV-2 = test: Antiretrovirus assay, HIV-2; settings: Table 1
CEM cells = test: Cytostatic/cytotoxic activity, inhibition of CEM cell proliferation; settings: Table 1; for CC50: 50% cytostatic concentration, CEM cell proliferation
[4] = test system: Herpes simplex virus-1 (KOS); test: Antiviral activity, Herpes simplex virus-1 (KOS); format: cell-based; settings: Human alphaherpesvirus 1; Table 4, reference compounds
[5] = test system: Herpes simples virus-2 (G); test: Antiviral activity, Herpes simplex virus-2 (G); format: cell-based; settings: Human alphaherpesvirus 2; Table 4, reference compounds
Vaccinia virus = test: microbe, parasite or virus in culture; format: cell-based; settings: Orthopoxvirus vaccinia, read-out: EC50 Vaccinia virus
[6] = test system: Vesicular stomatitis virus; test: microbe, parasite or virus in culture; format: cell-based; settings: read-out: EC50 Vesicular stomatitis virus
[7] = test system: Herpes simplex virus-1 TK KOS-ACV^r; test: Antiviral activity, Herpes simplex virus-1 TK KOS-ACVr; format: cell-based; settings: Human alphaherpesvirus 1, read-out: EC50 Herpes simplex virus-1 TK KOS-ACV^r
[8] = MTS, read-out: EC50 Influenza A H1N1 subtype MTS
[9] = visual CPE, read-out: EC50 Influenza A H1N1 subtype visual CPE score
[10] = MTS, read-out: EC50 Influenza A H3N2 subtype MTS
[11] = visual CPE, read-out: EC50 Influenza A H3N2 subtype visual CPE score
[12] = MTS, read-out: EC50 Influenza B MTS
[13] = visual CPE, read-out: EC50 Influenza B visual CPE score

| Structure (SMILES) | EC50 Influenza A H1N1 subtype MTS (Influenza A H1N1 subtype) [µg/mL] | EC50 Influenza A H1N1 subtype visual CPE score (Influenza A H1N1 subtype) [µg/mL] | EC50 Influenza A H3N2 subtype MTS (Influenza A H3N2 subtype) [µg/mL] | EC50 Influenza A H3N2 subtype visual CPE score (Influenza A H3N2 subtype) [µg/mL] | EC50 Influenza B MTS (Influenza B) [µg/mL] | EC50 Influenza B visual CPE score (Influenza B) [µg/mL] | EC50 HIV-1 (HIV-1) [µg/mL] | EC50 HIV-2 (HIV-2) [µg/mL] | CC50 (CEM cells) [µg/mL] | also measured |
| --- | --- | --- | --- | --- | --- | --- | --- | --- | --- | --- |
| Cc1ccc2ccc(NCc3c(C)c(CNc4ccc5ccc(C)nc5n4)c(C)c(CNc4ccc5ccc(C)nc5n4)c3C)nc2n1 [Compound 24] |  |  |  |  |  |  |  |  |  | Feline Corona virus EC50 (Feline Corona virus): 42 ± 0 µg/mL; Human Corona virus EC50 [1]: 38 ± 1 µg/mL; Feline Corona virus CC50 (CRFK cells [2]): >100 µg/mL; Human Corona virus CC50 (CRFK cells [3]): >100 µg/mL |
| CCc1c(CNc2ccc3ccc(C)nc3n2)c(CC)c(CNc2ccc3ccc(C)nc3n2)c(CC)c1CNc1ccc2ccc(C)nc2n1 [Compound 25] | >4 | >4 | >4 | >4 | >4 | >4 | 1.25 ± 0.35 (≈ 1.85 µM) | >20 | 81.7 ± 26.0 (≈ 121 µM) | Feline Corona virus EC50 (Feline Corona virus): 9.1 ± 0.4 µg/mL; Human Corona virus EC50 [1]: 20 ± 5 µg/mL; Feline Corona virus CC50 (CRFK cells [2]): 92 ± 9 µg/mL; Human Corona virus CC50 (CRFK cells [3]): >100 µg/mL; cytotoxicity (in words) (CEM cells): low cytotoxicity |
| Cc1ccc(NCc2c(C)c(CNc3ccc(C)cn3)c(C)c(CNc3ccc(C)cn3)c2C)nc1 [Compound 26] |  |  |  |  |  |  | >4 | >4 | 22.0 ± 8.2 (≈ 45.8 µM) |  |
| CC(=NO)c1cccc(NCc2c(C)c(CNc3cccc(C(C)=NO)c3)c(C)c(CNc3cccc(C(C)=NO)c3)c2C)c1 [Compound 27] |  |  |  |  |  |  | >4 | >4 | 20.4 ± 11.4 (≈ 33.6 µM) |  |
| CCc1c(CNc2cccc(C(C)=NO)c2)c(CC)c(CNc2cccc(C(C)=NO)c2)c(CC)c1CNc1cccc(C(C)=NO)c1 [Compound 28] |  |  |  |  |  |  | >4 | >4 | 10.0 ± 0.98 (≈ 15.4 µM) |  |
| CCc1c(CN)c(CC)c(CNc2cc(C)cc(C)n2)c(CC)c1CNc1cc(C)cc(C)n1 [Compound 29] | >0.8 | >0.8 | >0.8 | >0.8 | >0.8 | >0.8 | >0.16 | >0.8 | 1.69 ± 0.02 (≈ 3.68 µM) |  |
| Cc1cccc(NC(=O)c2cc(C(=O)Nc3cccc(C)n3)cc(C(=O)Nc3cccc(C)n3)c2)n1 [Compound 30] |  |  |  |  |  |  | >20 | >20 | >100 | cytotoxicity (in words) (CEM cells): low cytotoxicity |
| Nc1nc(O)c2ncn(COC(CO)CO)c2n1 [Ganciclovir] |  |  |  |  |  |  |  |  |  | EC50 [4]: 6.4 nM; EC50 [5]: 32 nM; EC50 (Vaccinia virus): 100000 nM; EC50 [6]: > 150000 nM; EC50 [7]: 12000 nM |
| CCC(CC)O[C@@H]1C=C(C(=O)O)C[C@H](N)[C@H]1NC(C)=O [Oseltamivir caboxylate, reference compound] |  |  |  |  |  |  |  |  |  | EC50 (Influenza A H1N1 subtype; [8]): 3 nM; EC50 (Influenza A H1N1 subtype; [9]): 4 nM; EC50 (Influenza A H3N2 subtype; [10]): 1600 nM; EC50 (Influenza A H3N2 subtype; [11]): 1800 nM; EC50 (Influenza B; [12]): 2600 nM; EC50 (Influenza B; [13]): 4000 nM |
| Cc1ccc(O)c(NC(=O)c2cc(C(=O)Nc3cc(C)ccc3O)cc(C(=O)Nc3cc(C)ccc3O)c2)c1 [Phe-Kresol] | >0.8 | >0.8 | >0.8 | >0.8 | >0.8 | >0.8 |  |  |  |  |
| CC(N)C12CC3CC(CC(C3)C1)C2 (centres unmarked) [Rimantadin, reference compound] |  |  |  |  |  |  |  |  |  | EC50 (Influenza A H1N1 subtype; [8]): 9900 nM; EC50 (Influenza A H1N1 subtype; [9]): 8900 nM; EC50 (Influenza A H3N2 subtype; [10]): 900 nM; EC50 (Influenza A H3N2 subtype; [11]): 2100 nM; EC50 (Influenza B; [12]): > 100000 nM; EC50 (Influenza B; [13]): > 100000 nM |
| Cc1ccc2ccc(NC(=O)c3cccc(C(=O)Nc4ccc5ccc(C)nc5n4)c3)nc2n1 [Sc74] | 9.6 (≈ 21.4 µM) | 15.1 ± 7.0 (≈ 33.7 µM) | 12.5 (≈ 27.9 µM) | 14.5 ± 7.8 (≈ 32.3 µM) | 9.9 (≈ 22.1 µM) | 10.9 ± 1.1 (≈ 24.3 µM) |  |  |  | Feline Corona virus EC50 (Feline Corona virus): 29.0 ± 4.8 µg/mL; Feline Corona virus CC50 (CRFK cells [2]): >100 µg/mL |
| Cc1cc(C)c2ccc(NC(=O)c3cc(C(=O)Nc4ccc5c(C)cc(C)nc5n4)cc(C(=O)Nc4ccc5c(C)cc(C)nc5n4)c3)nc2n1 [Sc75] | >4 | >4 | >4 | >4 | >4 | >4 |  |  |  |  |
